Data: patent US20230303542A1, “SOLID FORMS OF A PARP14 INHIBITOR” (Ribon Therapeutics, Inc., priority 2022, published 2023)
Values after ≈ are worked out from the molar mass of the structure shown. Values belong to the compound of their own block, whether it stands above or below them.

Legend:
Type in all cases: physicochemical
[1] = Preliminary solubility of Compound 1 Form I, visual assessment; settings: thermodynamic from solid, estimated via visual assessment
[2] = Dynamic solubility of Form II in single solvents, dissolution observed visually; settings: thermodynamic from solid, 22° C.
Method: An appropriate amount of Form II was weighed into a sample vial and then the indicated solvent was added gradually until all the solid was dissolved at RT. The dissolution was observed visually.

[3] = Dynamic solubility of Form II in mixed solvents, dissolution observed visually; settings: thermodynamic from solid
Excerpt: The solubility data was used to control supersaturation and calculate theoretical yield of the crystallization process.

[4] = Kinetic solubility of Form II, clear temperature point by Crystal 16; settings: organic solvent or mixture, thermodynamic from solid; at 30° C.; volume ratio of MeOH-water/MTBE 9/1/30
[5] = Solid-state stability study (HPLC purity and XRPD); settings: 60° C. (closed) and 40° C./75%RH for 14 days
Method: HPLC analysis was performed with an Agilent HPLC 1260 series instrument.
At day 0, 7 and 14, the sample was dissolved in diluent to prepare solution for HPLC purity analysis. Solid samples were analyzed by XRPD to check the crystal form.
(closed) and 40° C./75%RH (open) up to 14 days, samples were prepared in duplicate for each condition. […] (closed) and 40° C./75%RH for 14 days.

[6] = organic solvent or mixture, 2-Me-THF
[7] = organic solvent or mixture, Acetone
[8] = organic solvent or mixture, Ethanol (EtOH)
[9] = organic solvent or mixture, Ethyl acetate (EA)
[10] = organic solvent or mixture, Methanol (MeOH)
[11] = organic solvent or mixture, Methyl ethyl ketone (MEK)

solubility [1, 6]: 10000 µg/mL (≈ 22.2 mM) | solubility ([1]; organic solvent or mixture, ACN): < 600 µg/mL | solubility [1, 7]: 1000 µg/mL (≈ 2.22 mM) | solubility ([1]; organic solvent or mixture, DCM): 6300 µg/mL (≈ 14 mM) | solubility ([1]; organic solvent or mixture, DMSO): 16700 µg/mL (≈ 37.1 mM) | solubility [1, 8]: 3300 µg/mL (≈ 7.34 mM) | solubility [1, 9]: 2500 µg/mL (≈ 5.56 mM) | solubility ([1]; organic solvent or mixture, Heptane): < 600 µg/mL | solubility ([1]; organic solvent or mixture, Isopropyl acetate (IPAC)): 1300 µg/mL (≈ 2.89 mM) | solubility ([1]; organic solvent or mixture, Isopropyl alcohol (IPA)): < 600 µg/mL | solubility [1, 10]: 10000 µg/mL (≈ 22.2 mM) | solubility [1, 11]: 10000 µg/mL (≈ 22.2 mM) | solubility ([1]; organic solvent or mixture, Methyl tert-butyl ether (MTBE)): < 600 µg/mL | solubility ([1]; organic solvent or mixture, THF): 4200 µg/mL (≈ 9.34 mM) | solubility ([1]; organic solvent or mixture, Toluene): < 600 µg/mL | solubility ([1]; Water): < 600 µg/mL
Structure (SMILES): CC(=O)N1CCC(COc2cc(F)c3c(=O)[nH]c(CSC4CCOCC4)nc3c2)CC1 [Form I, 7-((1-acetylpiperidin-4-yl)methoxy)-5-fluoro-2-(((tetrahydro-2H-pyran-4-yl)thio)methyl)quinazolin-4(3H)-one]

solubility [2, 6]: 700 µg/mL (≈ 1.56 mM) | solubility ([2]; organic solvent or mixture, 2-Propanol (IPA)): < 600 µg/mL | solubility ([2]; organic solvent or mixture, Acetic acid): > 167000 µg/mL | solubility [2, 7]: 800 µg/mL (≈ 1.78 mM) | solubility ([2]; organic solvent or mixture, Acetonitrile (ACN)): 600 µg/mL (≈ 1.33 mM) | solubility ([2]; organic solvent or mixture, Dichloromethane (DCM)): 16700 µg/mL (≈ 37.1 mM) | solubility ([2]; organic solvent or mixture, Dimethyl sulfoxide (DMSO)): 12500 µg/mL (≈ 27.8 mM) | solubility [2, 8]: 1000 µg/mL (≈ 2.22 mM) | solubility [2, 9]: < 600 µg/mL | solubility ([2]; organic solvent or mixture, Isopropyl acetate (IPAc)): < 600 µg/mL | solubility [2, 10]: 8300 µg/mL (≈ 18.5 mM) | solubility [2, 11]: 1700 µg/mL (≈ 3.78 mM) | solubility ([2]; organic solvent or mixture, Tert-Butyl methyl ether (MTBE)): < 600 µg/mL | solubility ([2]; organic solvent or mixture, Tetrahydrofuran (THF)): 4200 µg/mL (≈ 9.34 mM) | solubility ([2]; organic solvent or mixture, Toluene (Tol)): < 600 µg/mL | solubility ([2]; organic solvent or mixture, n-Heptane (Hept)): < 600 µg/mL | solubility ([2]; Water): < 600 µg/mL | solubility ([3]; MeOH/Anisole (1/2), organic solvent or mixture, MeOH/Anisole (½), 25° C.): ~150000 µg/mL (≈ 334 mM) | solubility ([3]; MeOH/Anisole (1/2), organic solvent or mixture, MeOH/Anisole (½), 40° C.): > 200000 µg/mL | solubility ([3]; organic solvent or mixture, Anisole, 25° C.): < 1000 µg/mL | solubility ([3]; organic solvent or mixture, MeOH/Anisole (1/1), 25° C.): 163000 to 176000 µg/mL (≈ 363 to 392 mM) | solubility ([3]; organic solvent or mixture, MeOH/Anisole (1/1), 40° C.): ~250000 µg/mL (≈ 556 mM) | solubility ([3]; organic solvent or mixture, MeOH/Anisole (2/1), 25° C.): 96000 to 106000 µg/mL (≈ 214 to 236 mM) | solubility at 30 min ([3]; organic solvent or mixture, MeOH/Anisole, volume ratio 1/1, RT, read-out: Solubility): 150000 to 160000 µg/mL | solubility ([3]; organic solvent or mixture, MeOH/Anisole/Hept (1/1/6), 25° C.): < 5000 µg/mL | solubility ([3]; organic solvent or mixture, MeOH/Anisole/Hept (1/2/3), 25° C.): > 10000 µg/mL | solubility ([3]; organic solvent or mixture, MeOH/Anisole/Hept (1/2/6), 25° C.): ~5000 µg/mL (≈ 11.1 mM) | solubility ([3]; organic solvent or mixture, MeOH/Anisole/MTBE (1/2/6), 25° C.): ~3000 µg/mL (≈ 6.67 mM) | solubility at 30 min ([3]; organic solvent or mixture, MeOH/MEK, volume ratio 1/1, RT, read-out: Solubility): 20000 to 30000 µg/mL | solubility ([3]; organic solvent or mixture, MeOH/water (7/3), 60° C.): ~125000 µg/mL (≈ 278 mM) | solubility at 30 min ([3]; organic solvent or mixture, MeOH/water (7/3), RT, read-out: Dynamic solubility): 10000 to 13000 µg/mL (≈ 22.2 to 28.9 mM) | solubility ([3]; organic solvent or mixture, MeOH/water (8/2), 50° C.): 50000 to 100000 µg/mL (≈ 111 to 222 mM) | solubility ([3]; organic solvent or mixture, MeOH/water (8/2), 60° C.): > 125000 µg/mL | solubility at 30 min ([3]; organic solvent or mixture, MeOH/water (8/2), RT, read-out: Dynamic solubility): 13000 to 17000 µg/mL (≈ 28.9 to 37.8 mM) | solubility ([3]; organic solvent or mixture, MeOH/water (9/1), 0° C.): 6000 to 10000 µg/mL (≈ 13.3 to 22.2 mM) | solubility ([3]; organic solvent or mixture, MeOH/water (9/1), 60° C.): > 125000 µg/mL | solubility at 30 min ([3]; organic solvent or mixture, MeOH/water (9/1), RT (Table of MeOH/Water), read-out: Dynamic solubility): 10000 to 13000 µg/mL (≈ 22.2 to 28.9 mM) | solubility at 30 min ([3]; organic solvent or mixture, MeOH/water, volume ratio 9/1, RT (Table of mixed solvents at RT), read-out: Solubility): 35000 to 43000 µg/mL | solubility ([3]; organic solvent or mixture, MeOH/water/MTBE (9/1/10), 0° C.): > 4500 µg/mL | solubility ([3]; organic solvent or mixture, MeOH/water/MTBE (9/1/20), 0° C.): ~3000 µg/mL (≈ 6.67 mM) | solubility ([3]; organic solvent or mixture, MeOH, 25° C.): 8300 µg/mL (≈ 18.5 mM) | solubility ([3]; organic solvent or mixture, MeOH, 50° C.): 29000 to 33000 µg/mL (≈ 64.5 to 73.4 mM) | solubility ([3]; organic solvent or mixture, MeOH, 60° C.): 71000 to 83000 µg/mL (≈ 158 to 185 mM) | solubility at 30 min ([3]; organic solvent or mixture, MeOH, RT, read-out: Dynamic solubility): 8300 µg/mL (≈ 18.5 mM) | solubility at 30 min ([3]; volume ratio 1/2, organic solvent or mixture, Ethyl formate/Acetone, volume ratio ½, RT, read-out: Solubility): < 2000 µg/mL | solubility at 30 min ([3]; volume ratio 1/2, organic solvent or mixture, Ethyl formate/EA, volume ratio ½, RT, read-out: Solubility): < 1000 µg/mL | solubility at 30 min ([3]; volume ratio 1/2, organic solvent or mixture, Ethyl formate/IPA, volume ratio ½, RT, read-out: Solubility): < 2000 µg/mL | solubility at 30 min ([3]; volume ratio 1/2, organic solvent or mixture, Ethyl formate/IPAC, volume ratio ½, RT, read-out: Solubility): < 1000 µg/mL | solubility at 30 min ([3]; volume ratio 1/2, organic solvent or mixture, Ethyl formate/MEK, volume ratio ½, RT, read-out: Solubility): < 2000 µg/mL | solubility at 30 min ([3]; volume ratio 1/2, organic solvent or mixture, Ethyl formate/MTBE, volume ratio ½, RT, read-out: Solubility): < 2000 µg/mL | solubility at 30 min ([3]; volume ratio 1/2, organic solvent or mixture, Ethyl formate/diethyl ether, volume ratio ½, RT, read-out: Solubility): 7000 to 8000 µg/mL | solubility at 30 min ([3]; volume ratio 1/2, organic solvent or mixture, Ethyl formate/n-BuOH, volume ratio ½, RT, read-out: Solubility): 3000 to 4000 µg/mL | solubility at 30 min ([3]; volume ratio 1/2, organic solvent or mixture, MEK/EA, volume ratio ½, RT, read-out: Solubility): < 1000 µg/mL | solubility at 30 min ([3]; volume ratio 1/2, organic solvent or mixture, MEK/Ethyl formate, volume ratio ½, RT, read-out: Solubility): < 1000 µg/mL | solubility at 30 min ([3]; volume ratio 1/2, organic solvent or mixture, MEK/IPA, volume ratio ½, RT, read-out: Solubility): < 1000 µg/mL | solubility at 30 min ([3]; volume ratio 1/2, organic solvent or mixture, MEK/IPAC, volume ratio ½, RT, read-out: Solubility): < 1000 µg/mL | solubility at 30 min ([3]; volume ratio 1/2, organic solvent or mixture, MEK/diethyl ether, volume ratio ½, RT, read-out: Solubility): < 1000 µg/mL | solubility at 30 min ([3]; volume ratio 1/2, organic solvent or mixture, MEK/n-BuOH, volume ratio ½, RT, read-out: Solubility): < 1000 µg/mL | solubility at 30 min ([3]; volume ratio 1/2, organic solvent or mixture, MeOH/Acetone, volume ratio ½, RT, read-out: Solubility): < 14000 µg/mL | solubility at 30 min ([3]; volume ratio 1/2, organic solvent or mixture, MeOH/Diethyl ether, volume ratio ½, RT, read-out: Solubility): < 2000 µg/mL | solubility at 30 min ([3]; volume ratio 1/2, organic solvent or mixture, MeOH/EA, volume ratio ½, RT, read-out: Solubility): < 10000 µg/mL | solubility at 30 min ([3]; volume ratio 1/2, organic solvent or mixture, MeOH/Ethyl formate, volume ratio ½, RT, read-out: Solubility): < 25000 µg/mL | solubility at 30 min ([3]; volume ratio 1/2, organic solvent or mixture, MeOH/MEK, volume ratio ½, RT, read-out: Solubility): 24000 to 30000 µg/mL | solubility at 30 min ([3]; volume ratio 1/2, organic solvent or mixture, MeOH/n-BuOH, volume ratio ½, RT, read-out: Solubility): < 3000 µg/mL | solubility at 30 min ([3]; volume ratio 1/9, organic solvent or mixture, MeOH/Ethyl formate, volume ratio ⅑, RT, read-out: Solubility): < 1000 µg/mL | solubility at 30 min ([3]; volume ratio 1/9, organic solvent or mixture, MeOH/MEK, volume ratio ⅑, RT, read-out: Solubility): 7000 to 8000 µg/mL | solubility at 30 min [4]: 6500 µg/mL | Physical and chemical stability [5]: both physically and chemically stable
Structure (SMILES): CC(=O)N1CCC(COc2cc(F)c3c(=O)[nH]c(CSC4CCOCC4)nc3c2)CC1 [Form II, 7-((1-acetylpiperidin-4-yl)methoxy)-5-fluoro-2-(((tetrahydro-2H-pyran-4-yl)thio)methyl)quinazolin-4(3H)-one]
